Assay results: patent US20110009332A1, “Therapeutic Treatment Of Wounds” (SOUTHWEST RESEARCH INSTITUTE, priority 2009, published 2011)
Where a SMILES comes first, the peptide text is derived from it. The star is where a group is joined. Cbz = O=C(OCc1ccccc1)*; OtBu = CC(C)(C)O*

Tests used:
BMP-2 = BMP-2 gene expression (qPCR, normalized over 18S) in human dermal fibroblasts; assay type: cell-based
Method: An examination of gene expression of BMP-2 was conducted using a number of proteasome inhibitors including, proteasome inhibitor-1, curcumin, MG-132 and bortezomib. Human neonatal dermal fibroblasts (AllCells, Catalog No. HN006001) were maintained in Dulbecco's modified Eagle's medium (DMEM) supplemented with 10% fetal bovine serum. Early passage cells were plated at 2×10^4 cells/cm^2 and grown in humidified 5% CO2 at 37° C. for 24 hours. Spent media was replaced the following day with assay media including Proteasome inhibitor-1 was added in DMEM at 1 μM and 0.1 μM. Untreated cells were used as the control group. For the human osteogenesis PCR array, the experimental group was treated only at 1 μM.
Phenol-chloroform extraction was performed to isolate the total RNA for real time polymerase chain reaction array. More specifically, the total RNA was prepared using TRI REAGENT (Ambion, product number 9738), wherein the total RNA was obtained from the human neonatal dermal fibroblasts. Note that isolation was performed as per the instructions provided with the TRI REAGENT. The RNA was used for subsequent quantitative polymerase chain reaction (qPRC) gene expression of BMP-2 measured using hydrolysis probes (TAQMAN probes available from Applied Biosystems) as described further below.
Concentration and integrity of the obtained total RNA was assessed by absorbance in a spectrophotometer at 260 nm and 280 nm and by electrophoresis in 1% agarose with formaldehyde loading dye. For TAQMAN gene expression assays, cDNA was synthesized from 2 μg of total RNA using the High Capacity cDNA Reverse Transcription Kit (Applied Biosystems, product number 4368814), again following the protocol supplied with the kit. The resulting cDNA was diluted 1:10.
For TAQMAN gene expression, gene-specific fluorescent labeled TAQMAN primers for FAM-BMP2 (Applied Biosystems, product number Hs00154192.m1) and TAQMAN reference VIC-18S ribosomal RNA (Applied Biosystems, product number 4310893E) were used to target the gene of interest. A cocktail of universal master mix (Applied Biosystems, product number 4369016) was prepared individually for both set of primers which contained Taq Polymerase, dNTPs, and buffer. Template cDNA's were added separately to respective individual wells in triplicate samples. PCR was performed on StepOne Plus Real Time System instrument (Applied Biosystems). The amplification program consisted of 1 cycle of 95° C. with 10 minute hold (hot start) followed by 50 cycles of 95° C. with 15 second annealing hold and 1 minute 60° C. specified acquisition hold.
For human osteogenisis PCR array, total RNA was prepared using silica matrix purification using RNEASY MINI KIT (Qiagen, product number 74101) according to the manufacturer's recommendations. cDNA was synthesized from 1 μg of purified DNA-free RNA accordingly to RT^2First Strand Kit (SABiosciences, C-03). The resulting cDNA was diluted 1:30 and amplified. The procedure for the PCR array using real-time PCR is based on the RT^2 Profiler PCR array system instructions for Human Osteogenesis (SABiosciences, product number PAHS-026C). A cocktail reaction mix was setup as recommended by the PCR manufacturer (SABiosceiences, product number PA-012). PCR was performed using the same temperature parameters as used with the StepOne Plus Real Time System instrument. The Ct value of endogenous reference gene (i.e. 18s) was used to control for input RNA and then used to normalize target gene (i.e. BMP-2) tested from the same cDNA sample (Δ Ct), and then calibrated to an internal reference sample (ΔΔCt). Change in gene expression was determined by the expression 2̂-(ΔΔCt).
In addition, as alluded to above a similar methodology using 10 μmM and 100 μM of curcumin, 0.1 μM and 1 μM of bortezomib, and 0.1 μM and 1 μM of MG-132 proteasome inhibitors was performed.

20S proteasomes = 20S proteasomes (Homo sapiens, UniProt P28074); assay: Inhibition of 20S proteasome enzyme activity; assay type: biochemical; settings: 0 nM to 10,000 nM, FIGS. 7-9
Method: The IC50 may be understood as the amount of a particular substance/molecule needed to inhibit a given biological process in vitro by 50% and may be an indicator of the potency of a compound. The activity of the proteasome may be quantified by measuring the amount of fluorescence produced by cleavage of a fluorogenic substrate, such as LLVY-AMC, which when released by proteasomal cleavage, may emit fluorescent light.
The enzyme activity of 20S proteasomes was measured upon increasing addition of the proteasome inhibitors PS-1, curcumin and genestein in concentrations ranging from 0 nM to 10,000 nM. In particular, FIG. 7 illustrates the inhibition of 20S proteasomes upon the addition of PS-1. […] FIG. 8 illustrates the inhibition of the 20S proteasomes upon the addition of curcumin. […] FIG. 9 illustrates the inhibition of the 20S proteasomes upon the addition of genestein.

[1] = 0.1 μM inhibitor, FIG. 24, non-treated approximately 1.50
[2] = 1 μM inhibitor, FIG. 24, non-treated approximately 1.50

Structure (SMILES) | BMP-2/18S mRNA levels (BMP-2; [1]) [a.u.] | BMP-2/18S mRNA levels (BMP-2; [2]) | enzyme activity of 20S proteasomes with increasing inhibitor concentration (in words) (20S proteasomes) | BMP-2/18S mRNA levels (BMP-2; 0.1 μm PS-1, FIG. 22, non-treated control approximately 1.38) [au] | BMP-2/18S mRNA levels (BMP-2; 1.0 μm PS-1, FIG. 22, non-treated control approximately 1.38) [au] | BMP-2/18S mRNA levels (BMP-2; 10 μM curcumin, FIG. 23, non-treated approximately 1.38) [a.u.] | BMP-2/18S mRNA levels (BMP-2; 100 μM curcumin, FIG. 23, non-treated approximately 1.38) [a.u.]
CC(C)C[C@@H](C=O)NC(=O)[C@H](CC(C)C)NC(=O)[C@H](CC(C)C)NC(=O)OCc1ccccc1 [MG132] (Cbz-Leu-Leu-Leu-aldehyde) | 5.95 | approximately 9.51 a.u. |  |  |  |  | 
CC[C@H](C)[C@H](NC(=O)OCc1ccccc1)C(=O)N[C@@H](CCC(=O)OC(C)(C)C)C(=O)N[C@@H](C)C(=O)N[C@H](C=O)CC(C)C [PS-1, Z-Ile-Glu(OBu^t)-Ala-Leu-H] (Cbz-IE(OtBu)AL-aldehyde) |  |  | enzyme activity decreased | 9.01 | 12.5 |  | 
CC(C)C[C@H](NC(=O)[C@H](Cc1ccccc1)NC(=O)c1cnccn1)B(O)O [bortezomib] | 6.55 | 9.68 a.u. |  |  |  |  | 
COc1cc(/C=C/C(=O)CC(=O)/C=C/c2ccc(O)c(OC)c2)ccc1O [curcumin] |  |  | shown to decrease as well |  |  | 2.87 | 0.903
